From patent US20250027130A1, “Nucleic Acid Synthesis and Sequencing Using Tethered Nucleoside Triphosphates” (The Regents of the University of California, priority 2022, published 2025)

Columns and labels:
[1] = tested on: DH10B cells co-expressing MaFRSA; test: In vivo incorporation at position 200 of sfGFP, MaFRSA (intact mass, GluC LC-MS/MS); format: cell-based, E. coli; conditions: samples iv-v, DH10B, TB, 1 mM substrate
[2] = tested on: DH10B ΔaspC ΔtyrB harboring pMega-MaFRSA; format: cell-based, E. coli; conditions: samples viii-ix, TB, 1 mM substrate

Structure (SMILES)	sfGFP containing variant 20 at position 200 [1]	sfGFP containing variant 20 at position 200 [2]	sfGFP containing variant 1 at position 200 [1]	sfGFP containing variant 2 at position 200 [1]	sfGFP containing variant 21 at position 200 [1]	sfGFP containing variant A at position 200 [1]	sfGFP containing variant F at position 200 [1]	sfGFP containing variant K at position 200 [1]	sfGFP containing variant Q at position 200 [1]	sfGFP containing variant W at position 200 [1]	sfGFP containing variant Y at position 200 [1]	sfGFP containing variant 1 at position 200 [2]	sfGFP containing variant 2 at position 200 [2]	sfGFP containing variant 21 at position 200 [2]	sfGFP containing variant A at position 200 [2]	sfGFP containing variant F at position 200 [2]	sfGFP containing variant K at position 200 [2]	sfGFP containing variant Q at position 200 [2]	sfGFP containing variant W at position 200 [2]	sfGFP containing variant Y at position 200 [2]
N[C@@H](Cc1cccc(C(F)(F)F)c1)C(=O)O [Sample 20]	98.73%	98.19%	–	–	–	–	–	–	–	–	–	–	–	–	–	–	–	–	–	–
N[C@@H](Cc1cccc(C(F)(F)F)c1)C(=O)O [Substrate 20]	–	–	0.00%	0.00%	0.32%	0.03%	0.34%	0.02%	0.11%	0.17%	0.28%	0.00%	0.00%	0.65%	0.02%	0.34%	0.01%	0.07%	0.12%	0.60%
